Source: US20120214862A1, “MODULATION OF FACTOR 7 EXPRESSION” (ISIS Pharmaceuticals, Inc., priority 2009, published 2012)
In the oligonucleotide strings, read from the 5' end, every base follows the letter of its sugar. An asterisk marks phosphorothioate; unmarked linkages are phosphodiester. Other units and linkages are bracketed, terminal groups are in braces. A string of capitals states the bases alone. e = 2'-O-(2-methoxyethyl) (MOE); [5mC] = 5-methylcytosine; d = 2'-deoxy (DNA)

Test system: human Factor 7 mRNA
Experiment: Antisense inhibition of human Factor 7 mRNA in HepB3 cells, lipofectin, 50 nM, real-time RT-PCR
Format: cell-based
Conditions: for % Inhibition (human Factor 7 mRNA): 50 nM, ~24 h
How it was run: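 Cells plated at 4,000 per well were transfected and harvested after approximately 24 hours of treatment. Transcript levels, measured with primer probe set RTS 2927, were normalised to total RNA by RIBOGREEN®. Values are percent inhibition relative to untreated control cells.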

[1] = Example 1, HepB3 cells, lipofectin, relative to untreated control cells
[2] = HepB3 cells, gapmers targeted to nucleobases 11830 to 11869 of SEQ ID NO: 1 (Table 9)
[3] = HepB3 cells, lipofectin, 50 nM antisense oligonucleotide, approximately 24 hours, primer probe set RTS 2927, relative to untreated control
[4] = HepB3 cells, gapmers targeted to nucleobases 14707 to 14732 of SEQ ID NO: 1 (Table 11)
[5] = Example 4, HepB3 cells, lipofectin, relative to untreated control
[6] = HepB3 cells, gapmers targeted to nucleobases 13760 to 13789 of SEQ ID NO: 1 (Table 10)
[7] = HepB3 cells, gapmers (5-10-5, 3-14-3, 2-13-5 MOE) targeted to nucleobases 4868 to 4899 of SEQ ID NO: 1

407622 (antisense eT*e[5mC]*eA*e[5mC]*e[5mC]*dA*dA*d[5mC]*dA*dA*d[5mC]*dA*dG*dG*dA*e[5mC]*e[5mC]*eT*eG*e[5mC]) [compound 407622]
% Inhibition (human Factor 7 mRNA) [1]: 55%

422233 (antisense eG*eG*dT*d[5mC]*dA*dG*dG*dG*d[5mC]*dT*dG*dG*dT*dT*dT*eT*eG*eG*eA*eG) [compound 422233]
% Inhibition of human Factor 7 mRNA levels [2]: 46%

416514 (antisense eG*eT*eA*eT*eT*dT*dT*d[5mC]*dT*dG*dA*dT*dG*dT*dG*eA*eA*eA*eA*e[5mC]) [compound 416514]
% Inhibition of human Factor 7 mRNA levels [3]: 8%

416513 (antisense e[5mC]*eT*eG*eA*eT*dG*dT*dG*dA*dA*dA*dA*d[5mC]*d[5mC]*dG*eG*e[5mC]*eA*eT*eG) [compound 416513]
% Inhibition of human Factor 7 mRNA levels [3]: 37%

416468 (antisense eT*eG*eG*eG*eA*dG*dA*d[5mC]*d[5mC]*d[5mC]*dT*dG*dG*dT*dG*eT*eA*e[5mC]*eA*e[5mC]) [compound 416468]
% Inhibition of human Factor 7 mRNA levels [3]: 46%

407650 (antisense e[5mC]*e[5mC]*eA*eT*eG*dT*dG*dA*dG*dG*dG*dT*dT*d[5mC]*dA*eT*eT*eT*e[5mC]*eA) [compound 407650]
% Inhibition (human Factor 7 mRNA) [1]: 39%

416498 (antisense eG*eG*e[5mC]*e[5mC]*eA*dG*dT*dG*dG*d[5mC]*d[5mC]*dA*dT*dG*d[5mC]*eA*eT*e[5mC]*e[5mC]*e[5mC]) [compound 416498]
% Inhibition of human Factor 7 mRNA levels [3]: 5%

416504 (antisense eT*e[5mC]*eA*eG*eA*dA*dA*dA*dG*d[5mC]*dT*d[5mC]*dT*d[5mC]*dA*eA*eG*eA*eA*e[5mC]) [compound 416504]
% Inhibition of human Factor 7 mRNA levels [3]: 0%

407642 (antisense e[5mC]*eA*eG*e[5mC]*eA*dG*d[5mC]*d[5mC]*dT*dG*dA*dG*dG*d[5mC]*d[5mC]*eA*eG*e[5mC]*eA*eG) [compound 407642]
% Inhibition (human Factor 7 mRNA) [1]: 78% | % Inhibition of human Factor 7 mRNA levels [4]: 63%

422125 (antisense e[5mC]*eT*eG*eA*eG*d[5mC]*dG*d[5mC]*dG*dG*dA*dA*dG*dA*dA*eG*eG*eG*eA*e[5mC]) [compound 422125]
% Inhibition (human Factor 7 mRNA) [5]: 8%

407927 (antisense eA*eG*eG*eT*eA*dA*dG*dG*dA*dG*dG*d[5mC]*dT*d[5mC]*dA*eG*e[5mC]*eT*eG*eG) [compound 407927]
% Inhibition (human Factor 7 mRNA) [1]: 55%

416475 (antisense e[5mC]*eT*e[5mC]*eA*eG*d[5mC]*dT*dG*dG*dG*d[5mC]*dT*dG*dT*d[5mC]*eT*eG*e[5mC]*e[5mC]*eT) [compound 416475]
% Inhibition of human Factor 7 mRNA levels [3]: 70%

422236 (antisense eA*eA*dT*dG*dG*dT*d[5mC]*dA*dG*dG*dG*d[5mC]*dT*dG*dG*eT*eT*eT*eT*eG) [compound 422236]
% Inhibition of human Factor 7 mRNA levels [2]: 44%

416540 (antisense eG*eG*eA*e[5mC]*eT*dG*dG*dT*dG*dT*d[5mC]*dA*dT*d[5mC]*dT*eG*eG*eG*eA*e[5mC]) [compound 416540]
% Inhibition of human Factor 7 mRNA levels [3]: 38%

407600 (antisense eT*eG*eA*eA*eG*d[5mC]*d[5mC]*d[5mC]*dA*dA*dG*d[5mC]*dA*dG*dA*eA*eG*eG*e[5mC]*eA) [compound 407600]
% Inhibition (human Factor 7 mRNA) [1]: 61%

407914 (antisense e[5mC]*e[5mC]*eA*eG*e[5mC]*dT*dG*dA*d[5mC]*dG*dA*dT*dG*d[5mC]*d[5mC]*e[5mC]*eG*eT*e[5mC]*eA) [compound 407914]
% Inhibition (human Factor 7 mRNA) [1]: 82%

422124 (antisense eT*eG*eA*eG*e[5mC]*dG*d[5mC]*dG*dG*dA*dA*dG*dA*dA*dG*eG*eG*eA*e[5mC]*eG) [compound 422124]
% Inhibition (human Factor 7 mRNA) [5]: 0%

422256 (antisense e[5mC]*eA*d[5mC]*d[5mC]*d[5mC]*dG*d[5mC]*d[5mC]*dG*dG*d[5mC]*dT*d[5mC]*dT*dG*e[5mC]*eT*e[5mC]*eA*eT) [compound 422256]
% Inhibition of human Factor 7 mRNA levels [6]: 29%

416430 (antisense eG*e[5mC]*eA*eG*e[5mC]*dT*d[5mC]*d[5mC]*dT*d[5mC]*d[5mC]*dA*dG*dG*dA*eA*e[5mC]*eG*e[5mC]*eG) [compound 416430]
% Inhibition of human Factor 7 mRNA levels [3]: 52%

407615 (antisense eG*eA*e[5mC]*eA*e[5mC]*d[5mC]*d[5mC]*d[5mC]*dG*dT*d[5mC]*dT*dG*d[5mC]*d[5mC]*eA*eG*e[5mC]*eA*eG) [compound 407615]
% Inhibition (human Factor 7 mRNA) [1]: 65%

416528 (antisense eT*eG*eA*eT*eA*dA*dA*dA*d[5mC]*d[5mC]*dT*d[5mC]*dT*dG*dG*eA*e[5mC]*eA*e[5mC]*e[5mC]) [compound 416528]
% Inhibition of human Factor 7 mRNA levels [3]: 10%

407886 (antisense eG*e[5mC]*eA*eG*eA*dG*dG*dA*dG*d[5mC]*d[5mC]*dT*dG*dA*dG*eG*eG*e[5mC]*e[5mC]*eT) [compound 407886]
% Inhibition (human Factor 7 mRNA) [1]: 72%

422298 (antisense eG*e[5mC]*d[5mC]*d[5mC]*dG*dA*dG*dT*dT*d[5mC]*dT*dG*d[5mC]*dA*dG*eG*eA*eG*e[5mC]*eG) [compound 422298]
% Inhibition of human Factor 7 mRNA levels [7]: 62%

407888 (antisense e[5mC]*eG*eA*eA*eG*dA*d[5mC]*dT*dG*d[5mC]*dA*dG*d[5mC]*d[5mC]*dA*eG*eG*e[5mC]*eA*eG) [compound 407888]
% Inhibition (human Factor 7 mRNA) [1]: 34%

407649 (antisense eG*eA*eG*eG*eG*dT*dT*d[5mC]*dA*dT*dT*dT*d[5mC]*dA*dG*eT*eG*eA*eT*eG) [compound 407649]
% Inhibition (human Factor 7 mRNA) [1]: 24%

422302 (antisense eA*eG*dG*dA*dG*d[5mC]*d[5mC]*d[5mC]*dG*dA*dG*dT*dT*d[5mC]*dT*eG*e[5mC]*eA*eG*eG) [compound 422302]
% Inhibition of human Factor 7 mRNA levels [7]: 67%

422103 (antisense eG*e[5mC]*eT*eG*eA*dG*dG*dA*dG*dA*d[5mC]*dA*dA*dT*dG*eG*eT*e[5mC]*eA*eG) [compound 422103]
% Inhibition of human Factor 7 mRNA levels [2]: 38%

422199 (antisense eG*eG*eT*dT*dA*d[5mC]*dT*dG*dA*dG*d[5mC]*dG*d[5mC]*dG*dG*dA*dA*eG*eA*eA) [compound 422199]
% Inhibition (human Factor 7 mRNA) [5]: 65%

422162 (antisense eG*eA*e[5mC]*dA*dA*dT*dG*dG*dT*d[5mC]*dA*dG*dG*dG*d[5mC]*dT*dG*eG*eT*eT) [compound 422162]
% Inhibition of human Factor 7 mRNA levels [2]: 59%

416467 (antisense e[5mC]*e[5mC]*e[5mC]*eT*eG*dG*d[5mC]*d[5mC]*d[5mC]*d[5mC]*dA*dG*d[5mC]*dT*dG*eA*e[5mC]*eG*eA*eT) [compound 416467]
% Inhibition of human Factor 7 mRNA levels [3]: 55%

422128 (antisense eT*eT*eA*e[5mC]*eT*dG*dA*dG*d[5mC]*dG*d[5mC]*dG*dG*dA*dA*eG*eA*eA*eG*eG) [compound 422128]
% Inhibition (human Factor 7 mRNA) [5]: 27%

416495 (antisense eT*e[5mC]*eT*eA*eG*dA*dA*dT*dT*d[5mC]*d[5mC]*dA*dA*dA*d[5mC]*e[5mC]*e[5mC]*e[5mC]*eT*eA) [compound 416495]
% Inhibition of human Factor 7 mRNA levels [3]: 0%

422204 (antisense eG*e[5mC]*eA*dG*d[5mC]*d[5mC]*dT*dG*dA*dG*dG*d[5mC]*d[5mC]*dA*dG*d[5mC]*dA*eG*eA*eT) [compound 422204]
% Inhibition of human Factor 7 mRNA levels [4]: 72%

422216 (antisense eA*eG*eT*dT*d[5mC]*dT*dG*d[5mC]*dA*dG*dG*dA*dG*d[5mC]*dG*dG*d[5mC]*e[5mC]*eT*eA) [compound 422216]
% Inhibition of human Factor 7 mRNA levels [7]: 68%

416480 (antisense eA*eA*eG*eT*eG*dA*dG*dA*dG*d[5mC]*dT*dA*dA*dA*d[5mC]*eA*eA*e[5mC]*e[5mC]*eG) [compound 416480]
% Inhibition of human Factor 7 mRNA levels [3]: 25%

422288 (antisense eA*e[5mC]*dA*dG*d[5mC]*dA*d[5mC]*dA*d[5mC]*dA*dT*dG*dG*dA*dG*eT*e[5mC]*eA*eG*e[5mC]) [compound 422288]
% Inhibition (human Factor 7 mRNA) (Example 6 microwalk, nucleobases 15098 to 15122 of SEQ ID NO: 1, HepB3, lipofectin): 44%

416562 (antisense eA*eA*eA*eG*e[5mC]*dA*dG*dA*dG*d[5mC]*d[5mC]*dA*dG*d[5mC]*dT*e[5mC]*eT*eG*eA*e[5mC]) [compound 416562]
% Inhibition of human Factor 7 mRNA levels [3]: 12%

416484 (antisense eT*eA*e[5mC]*eA*eG*d[5mC]*d[5mC]*dT*d[5mC]*dA*dA*dA*d[5mC]*dA*dT*e[5mC]*eT*eA*eT*e[5mC]) [compound 416484]
% Inhibition of human Factor 7 mRNA levels [3]: 0%

407640 (antisense eG*e[5mC]*eA*eT*eG*dA*dG*d[5mC]*dT*dT*dT*dT*dG*d[5mC]*dA*eG*e[5mC]*e[5mC]*eA*e[5mC]) [compound 407640]
% Inhibition (human Factor 7 mRNA) [1]: 79%

407937 (antisense eG*eA*eA*eG*eG*dG*dA*dG*dA*dA*dA*dT*dA*d[5mC]*dA*eT*eT*eT*eG*eG) [compound 407937]
% Inhibition (human Factor 7 mRNA) [1]: 59%

416470 (antisense eG*e[5mC]*eT*eT*eT*dT*dG*d[5mC]*dA*dG*d[5mC]*d[5mC]*dA*d[5mC]*dT*e[5mC]*eG*eA*eT*eG) [compound 416470]
% Inhibition of human Factor 7 mRNA levels [3]: 39%

422114 (antisense e[5mC]*eG*e[5mC]*e[5mC]*eA*d[5mC]*d[5mC]*d[5mC]*dG*d[5mC]*d[5mC]*dG*dG*d[5mC]*dT*e[5mC]*eT*eG*e[5mC]*eT) [compound 422114]
% Inhibition of human Factor 7 mRNA levels [6]: 50%

407916 (antisense eG*eT*eG*eG*e[5mC]*d[5mC]*d[5mC]*dA*d[5mC]*dG*dG*dT*dT*dG*d[5mC]*eG*e[5mC]*eA*eG*e[5mC]) [compound 407916]
% Inhibition (human Factor 7 mRNA) [1]: 53%
